Measured values: PubChem BioAssay AID248 (DTP/NCI, 2004)
Inconclusive results and toxic doses are left out.

System: L1210 leukemia ip in BDF1 mice, survival T/C
Test: NCI In Vivo Anticancer Drug Screen. Data for tumor model L1210 Leukemia (intraperitoneal) in B6D2F1 (BDF1) mice
Details: endpoint: mean survival time, higher = longer survival
Method in brief: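 Tumor cells were implanted, animals were treated, and survival was followed. The result divides the treated measurement by the vehicle-control measurement.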

[1] = dose: 100.0 mg/kg/injection, schedule: Q04DX003 (ip), vehicle: saline with Tween-80
[2] = dose: 200.0 mg/kg/injection, schedule: Q04DX003 (ip), vehicle: saline with Tween-80
[3] = dose: 400.0 mg/kg/injection, schedule: Q04DX003 (ip), vehicle: saline with Tween-80
[4] = dose: 100.0 mg/kg/injection, schedule: Q01DX001 (ip), vehicle: saline
[5] = dose: 100.0 mg/kg/injection, schedule: Q01DX009 (ip), vehicle: saline
[6] = dose: 100.0 mg/kg/injection, schedule: Q04DX003 (ip), vehicle: saline
[7] = dose: 200.0 mg/kg/injection, schedule: Q04DX003 (ip), vehicle: saline
[8] = dose: 400.0 mg/kg/injection, schedule: Q04DX003 (ip), vehicle: saline
[9] = dose: 200.0 mg/kg/injection, schedule: Q01DX001 (ip), vehicle: saline
[10] = dose: 100.0 mg/kg/injection, schedule: Q04DX002 (ip), vehicle: saline with Tween-80
[11] = dose: 200.0 mg/kg/injection, schedule: Q04DX002 (ip), vehicle: saline with Tween-80
[12] = dose: 400.0 mg/kg/injection, schedule: Q04DX002 (ip), vehicle: saline with Tween-80

## Cc1cccc(C)c1NC(=O)NC/C(Br)=C/Br
dose: 75.0 mg/kg/injection, schedule: Q01DX009 (ip), vehicle: Klucel (hydroxypropylcellulose) (HPC)
  T/C: 100 % of control
dose: 150.0 mg/kg/injection, schedule: Q01DX009 (ip), vehicle: Klucel (hydroxypropylcellulose) (HPC)
  T/C: 100 % of control
dose: 300.0 mg/kg/injection, schedule: Q01DX009 (ip), vehicle: Klucel (hydroxypropylcellulose) (HPC)
  T/C: 104 % of control

## CCCCOC(=O)CCC(C)=O
dose: 100.0 mg/kg/injection, schedule: Q01DX009 (ip), vehicle: saline with Tween-80
  T/C: 92 % of control
[1]
  T/C: 109 % of control
dose: 200.0 mg/kg/injection, schedule: Q01DX009 (ip), vehicle: saline with Tween-80
  T/C: 100 % of control
[2]
  T/C: 113 % of control
dose: 400.0 mg/kg/injection, schedule: Q01DX009 (ip), vehicle: saline with Tween-80
  T/C: 96 % of control
[3]
  T/C: 112 % of control

## CC(C)OC(=O)C#CC(=O)O
[4]
  T/C: 98 % of control

## CC(C)(C)c1cccc(OS(=O)(=O)c2cccc([N+](=O)[O-])c2)c1
[1]
  T/C: 95 % of control
[2]
  T/C: 100 % of control
[3]
  T/C: 100 % of control

## O=S(=O)(c1ccccc1)C(CCCC(C(O)(c1ccccc1)c1ccccc1)S(=O)(=O)c1ccccc1)C(O)(c1ccccc1)c1ccccc1 (centres undefined)
[1]
  T/C: 98 % of control
[2]
  T/C: 100 % of control
[3]
  T/C: 105 % of control

## COc1cc(C=NC(CO)C(=O)O)ccc1O.COc1cc(C=NC(CO)C(=O)O)ccc1O.[Fe] (centres undefined)
[5]
  T/C: 92 % of control
[6]
  T/C: 88 % of control
dose: 200.0 mg/kg/injection, schedule: Q01DX009 (ip), vehicle: saline
  T/C: 92 % of control
[7]
  T/C: 95 % of control
dose: 400.0 mg/kg/injection, schedule: Q01DX009 (ip), vehicle: saline
  T/C: 95 % of control
[8]
  T/C: 93 % of control

## CCOCc1cc([N+](=O)[O-])cc([N+](=O)[O-])c1O
dose: 5.56 mg/kg/injection, schedule: Q01DX009 (ip), vehicle: saline with Tween-80
  T/C: 90 % of control
dose: 8.33 mg/kg/injection, schedule: Q01DX009 (ip), vehicle: saline with Tween-80
  T/C: 108 % of control
dose: 12.5 mg/kg/injection, schedule: Q01DX009 (ip), vehicle: saline with Tween-80
  T/C: 95 % of control
dose: 18.7 mg/kg/injection, schedule: Q01DX009 (ip), vehicle: saline with Tween-80
  T/C: 104 % of control
dose: 25.0 mg/kg/injection, schedule: Q01DX009 (ip), vehicle: saline with Tween-80
  T/C: 103 % of control
dose: 50.0 mg/kg/injection, schedule: Q01DX009 (ip), vehicle: saline with Tween-80
  T/C: 93 % of control

## NNc1cc(Cl)ccc1Cl
dose: 100.0 mg/kg/injection, schedule: Q04DX002 (ip), vehicle: Klucel (hydroxypropylcellulose) (HPC)
  T/C: 96 % of control
dose: 200.0 mg/kg/injection, schedule: Q04DX002 (ip), vehicle: Klucel (hydroxypropylcellulose) (HPC)
  T/C: 96 % of control
dose: 400.0 mg/kg/injection, schedule: Q04DX002 (ip), vehicle: Klucel (hydroxypropylcellulose) (HPC)
  T/C: 100 % of control

## c1ccc(OC2COC(Oc3ccccc3)CO2)cc1 (centres undefined)
[4]
  T/C: 97 % of control
dose: 100.0 mg/kg/injection, schedule: Q01DX009 (ip), vehicle: acetone
  T/C: 97 % of control
[6]
  T/C: 103 % of control
[9]
  T/C: 87 % of control
dose: 200.0 mg/kg/injection, schedule: Q01DX009 (ip), vehicle: acetone
  T/C: 92 % of control
[7]
  T/C: 97 % of control
dose: 400.0 mg/kg/injection, schedule: Q01DX001 (ip), vehicle: saline
  T/C: 90 % of control
dose: 400.0 mg/kg/injection, schedule: Q01DX009 (ip), vehicle: acetone
  T/C: 87 % of control
[8]
  T/C: 95 % of control

## CN(C)OC(=O)Nc1cccc(C(=O)ON(C)C)c1
dose: 100.0 mg/kg/injection, schedule: Q04DX002 (ip), vehicle: DMSO
  T/C: 99 % of control
dose: 200.0 mg/kg/injection, schedule: Q04DX002 (ip), vehicle: DMSO
  T/C: 101 % of control
dose: 400.0 mg/kg/injection, schedule: Q04DX002 (ip), vehicle: DMSO
  T/C: 101 % of control

## Cc1c(CCO)sc[n+]1Cc1ccccc1
dose: 100.0 mg/kg/injection, schedule: Q04DX002 (ip), vehicle: saline
  T/C: 93 % of control
dose: 200.0 mg/kg/injection, schedule: Q04DX002 (ip), vehicle: saline
  T/C: 100 % of control

## COC(=O)C1=CNC=C(C(=O)OC)C1c1ccc(C)cc1
[1]
  T/C: 95 % of control
[2]
  T/C: 93 % of control
[3]
  T/C: 91 % of control

## Nc1ccc(NS(=O)(=O)CCl)cc1
[10]
  T/C: 111 % of control
[11]
  T/C: 116 % of control
[12]
  T/C: 96 % of control

## COc1cc(/C=C/C(=O)c2ccc3ccccc3c2)cc(OC)c1OC
[10]
  T/C: 97 % of control
[11]
  T/C: 107 % of control
[12]
  T/C: 87 % of control

## CNC(=O)c1ccc(/C=C/c2c[nH]c3ccccc23)[n+](C)c1
[4]
  T/C: 97 % of control
[9]
  T/C: 95 % of control

## CN(C)CCCN1CCC2(CC[C@H]3CCCC[C@@H]3C2)CC1
dose: 9.0 mg/kg/injection, schedule: Q01DX015 (ip), vehicle: saline
  T/C: 91 % of control
dose: 18.0 mg/kg/injection, schedule: Q01DX015 (ip), vehicle: saline
  T/C: 97 % of control
dose: 25.0 mg/kg/injection, schedule: Q01DX009 (ip), vehicle: saline
  T/C: 101 % of control
dose: 25.0 mg/kg/injection, schedule: Q04DX003 (ip), vehicle: saline
  T/C: 90 % of control
dose: 36.0 mg/kg/injection, schedule: Q01DX015 (ip), vehicle: saline
  T/C: 101 % of control
dose: 50.0 mg/kg/injection, schedule: Q01DX009 (ip), vehicle: saline
  T/C: 101 % of control
dose: 50.0 mg/kg/injection, schedule: Q04DX003 (ip), vehicle: saline
  T/C: 93 % of control
dose: 72.0 mg/kg/injection, schedule: Q01DX015 (ip), vehicle: saline
  T/C: 114 % of control
[5]
  T/C: 109 % of control
[6]
  T/C: 104 % of control

## CC1CCCCN1Cc1ccccc1COC(=O)c1ccc([N+](=O)[O-])cc1Cl (centres undefined)
[10]
  T/C: 94 % of control
[11]
  T/C: 97 % of control

## COc1ccc(C=C2C(=O)NC(=O)NC2=O)cc1OC
dose: 50.0 mg/kg/injection, schedule: Q01DX009 (ip), vehicle: Klucel (hydroxypropylcellulose) (HPC)
  T/C: 92 % of control
dose: 100.0 mg/kg/injection, schedule: Q01DX009 (ip), vehicle: Klucel (hydroxypropylcellulose) (HPC)
  T/C: 96 % of control
dose: 200.0 mg/kg/injection, schedule: Q01DX009 (ip), vehicle: Klucel (hydroxypropylcellulose) (HPC)
  T/C: 96 % of control

## Cc1ccc(SCCn2cnc3c(ncn3Cc3ccccc3)c2=S)cc1
[1]
  T/C: 96 % of control
[2]
  T/C: 109 % of control
[3]
  T/C: 101 % of control

## CN(C(=O)N(CCCl)N=O)C1CCC(C(=O)O)CC1 (centres undefined)
dose: 12.0 mg/kg/injection, schedule: Q01DX009 (ip), vehicle: alkali diluted with saline
  T/C: 95 % of control
dose: 18.0 mg/kg/injection, schedule: Q01DX009 (ip), vehicle: alkali diluted with saline
  T/C: 103 % of control
dose: 24.0 mg/kg/injection, schedule: Q01DX001 (ip), vehicle: saline + Tween-80 + alkali
  T/C: 93 % of control
dose: 26.0 mg/kg/injection, schedule: Q01DX009 (ip), vehicle: alkali diluted with saline
  T/C: 103 % of control
dose: 36.0 mg/kg/injection, schedule: Q01DX001 (ip), vehicle: saline + Tween-80 + alkali
  T/C: 98 % of control
dose: 40.0 mg/kg/injection, schedule: Q01DX009 (ip), vehicle: alkali diluted with saline
  T/C: 111 % of control
dose: 54.0 mg/kg/injection, schedule: Q01DX001 (ip), vehicle: saline + Tween-80 + alkali
  T/C: 98 % of control
dose: 60.0 mg/kg/injection, schedule: Q01DX009 (ip), vehicle: alkali diluted with saline
  T/C: 119 % of control
dose: 80.0 mg/kg/injection, schedule: Q01DX001 (ip), vehicle: saline + Tween-80 + alkali
  T/C: 104 % of control
dose: 120.0 mg/kg/injection, schedule: Q01DX001 (ip), vehicle: saline + Tween-80 + alkali
  T/C: 113 % of control
dose: 180.0 mg/kg/injection, schedule: Q01DX001 (ip), vehicle: saline + Tween-80 + alkali
  T/C: 121 % of control
dose: 400.0 mg/kg/injection, schedule: Q01DX001 (ip), vehicle: saline + Tween-80 + alkali
  T/C: 180 % of control

## Cc1ccnc2ccc3ccccc3c12
dose: 100.0 mg/kg/injection, schedule: Q01DX001 (ip), vehicle: other
  T/C: 101 % of control
dose: 200.0 mg/kg/injection, schedule: Q01DX001 (ip), vehicle: other
  T/C: 107 % of control
dose: 400.0 mg/kg/injection, schedule: Q01DX001 (ip), vehicle: other
  T/C: 113 % of control
